{"source": "patent US20240285555A1", "about": "“COMPOSITIONS FOR THE TREATMENT OF COPPER DEFICIENCY AND METHODS OF USE” (priority 2018, published 2024)", "key": {"[1]": {"test_system": "sco1Δ cells", "experiment": "Respiratory growth rescue of sco1Δ yeast", "format": "cell-based, Saccharomyces cerevisiae", "conditions": "non-fermentable media, 37° C.", "procedure": "(§1) Yeast Strains and Culture Conditions. The authenticity of yeast strains was confirmed by PCR as well as by replica plating on dropout plates. Yeast cells were cultured in standard YP growth media including YPD (1% yeast extract, 2% peptone and 2% glucose), YPGal (2% galactose), YPGE (3% glycerol+1% ethanol), or synthetic media (SC glucose). For qualitative growth measurement, 10-fold serial dilutions of overnight cultures were spotted on YPD or YPGE plates and incubated at 30° C. and 37° C. for the indicated period. Growth in liquid media was measured spectrophotometrically at 600 nm.\n(§2) ES Rescues Many Different Yeast Mutants with Impaired Copper Metabolism. To test the specificity of ES mediated rescue, a number of yeast mutants of genes required for maintaining cellular and mitochondrial copper homeostasis were shortlisted. Genes were prioritized based on their evolutionary conservation, presence of pathogenic mutations in humans, and/or the existence of a related mouse phenotype (Table 3, shown below). […] Most of the yeast mutants were rescued with ES supplementation, albeit to different degrees, reflecting their distinct roles in cellular and mitochondrial copper homeostasis."}, "[2]": {"test_system": "yeast atx1Δ", "experiment": "Respiratory growth rescue of atx1Δ yeast", "format": "cell-based, Saccharomyces cerevisiae", "conditions": "non-fermentable media, 37° C.", "procedure": "as §1\nas §2, with “homeostasis. […]” for “homeostasis.”"}, "[3]": {"test_system": "Ctr1^−/− H9c2 cardiomyocytes", "experiment": "COX1 and SOD1 levels in Ctr1 knockout H9c2 cardiomyocytes (Western blot)", "format": "cell-based, rat", "conditions": "5 nM ES", "procedure": "FIGS. 4A and 4B illustrates the effects of ES supplementation in increasing copper levels (A) and cytochrome c oxidase subunit, COX1, and superoxide dismutase, SOD1 levels (B) in Ctrl1^−/− H9c2 rat cardiomyocytes. ATP5A is a subunit of mitochondrial ATP synthase and was used as a loading control for the Western blotting experiment.\nMammalian Cell Culture. The human control MCH46 and SCO2 patient fibroblasts as well as the rat H9c2 control and Ctr1^−/− cardiomyocytes were cultured in high glucose Dulbecco's modified Eagle's medium (DMEM) supplemented with 10% fetal bovine serum (Sigma) and 1 mM sodium pyruvate (Life Technologies). The mouse embryonic fibroblasts were cultured in DMEM 10% FBS, 1 mM sodium pyruvate, 1× minimum essential medium non-essential amino acids (MEM NEAA; Life Technologies 11140), 50 μg/mL uridine, and 1× Pen Strep Glutamine (Life Technologies 10378). All cell lines were cultured under 5% CO2 at 37° C. and were treated with indicated concentrations of ES for 3-6 days before harvesting. Whole cell protein was extracted in lysis buffer (BP-115, Boston BioProducts) supplemented with protease inhibitor cocktail (Roche Diagnostics) and the protein concentrations were determined by BCA assay (Thermo Scientific).\nConstruction of a Ctr1 Knockout Rat H9c2 Cell Line. […]"}, "[4]": {"conditions": "multiple human clinical trials; cited from earlier work"}}, "data": [{"compound": "CN(NC(=O)CC(=O)NN(C)C(=S)c1ccccc1)C(=S)c1ccccc1", "note": "[ES, elesclomol]", "values": [{"measurement": "rescue of respiratory growth", "setting": "[1]", "value": "failed to rescue"}, {"measurement": "rescue of respiratory growth", "setting": "[2]", "value": "rescue"}, {"measurement": "levels of COX1 and SOD1", "setting": "[3]", "value": "restores"}, {"measurement": "toxicity profile", "setting": "[4]", "value": "favorable toxicity profile"}]}]}
